Tested on: MCF7
Assay: Antiproliferative activity evaluated against MCF-7 cell line
Format: functional, cell-based
Details: Homo sapiens

First: CC[C@H](C)Cn1c(Cc2cc(OC)c(OC)c(OC)c2)nc2c(N)nc(F)nc21
Second: CCCn1c(Cc2cc(OC)c(OC)c(OC)c2)nc2c(N)nc(F)nc21
The IC50 of the first is 1.7-fold higher: 43.7 µM for the first, 25.1 µM for the second.

First: C#CCCCn1c(Cc2cc(OC)c(OC)c(OC)c2)nc2c(N)ncnc21
Second: CCCCn1c(Cc2cc(OC)c(OC)c(OC)c2)nc2c(N)ncnc21
The IC50 of the first is 2.1-fold lower: 24 µM for the first, 50.1 µM for the second.

`C=CCCn1c(Cc2cc(OC)c(OC)c(OC)c2)nc2c(N)nc(F)nc21` and `C=CCCCn1c(Cc2cc(OC)c(OC)c(OC)c2)nc2c(N)nc(F)nc21` are within 1.5-fold of each other in IC50: 33.1 µM for the first, 44.7 µM for the second.

Going from `CCC(C)Cn1c(Cc2cc(OC)c(OC)c(OC)c2)nc2c(N)ncnc21` (stereo not given) to `COc1cc(Cc2nc3c(N)ncnc3n2CC(C)C)cc(OC)c1OC`, the IC50 rises from 61.7 µM to 97.7 µM (1.6-fold). The first is the more potent here.

Compared with `CCC(CC)Cn1c(Cc2cc(OC)c(OC)c(OC)c2)nc2c(N)ncnc21`, `CCn1c(Cc2cc(OC)c(OC)c(OC)c2)nc2c(N)ncnc21` is 2-fold lower in IC50: 158 µM for the first, 79.4 µM for the second.

First: COCCn1c(Cc2cc(OC)c(OC)c(OC)c2)nc2c(N)nc(F)nc21
Second: COc1cc(Cc2nc3c(N)nc(F)nc3n2CCOC(C)C)cc(OC)c1OC
The IC50 of the first is 4.1-fold higher: 64.6 µM for the first, 15.8 µM for the second. The second is the more potent here.

Compared with `COc1cc(Cc2nc3c(N)nc(F)nc3n2CCOC(C)C)c(Cl)c(OC)c1OC`, `C#CCCCn1c(Cc2cc(OC)c(OC)c(OC)c2Cl)nc2c(N)nc(F)nc21` is 2.7-fold lower in IC50: 5.37 µM for the first, 2 µM for the second.

Compared with `COc1cc(Cc2nc3c(N)ncnc3n2CC2CC2)cc(OC)c1OC`, `COc1cc(Cc2nc3c(N)ncnc3n2CC2CCC2)cc(OC)c1OC` is 1.7-fold lower in IC50: 75.9 µM for the first, 45.7 µM for the second.

`CC/C=C/Cn1c(Cc2cc(OC)c(OC)c(OC)c2)nc2c(N)ncnc21` and `CC/C=C\Cn1c(Cc2cc(OC)c(OC)c(OC)c2)nc2c(N)ncnc21` are within 1.5-fold of each other in IC50: 46.8 µM for the first, 64.6 µM for the second.

`CCCCn1c(Cc2c(Br)c(OC)c(OC)c(OC)c2Br)nc2c(N)ncnc21` and `CCCCn1c(Cc2cc(OC)c(OC)c(OC)c2Br)nc2c(N)ncnc21` are within 1.5-fold of each other in IC50: 30.2 µM for the first, 25.1 µM for the second.

First: COc1cc(Cc2nc3c(N)nc(F)nc3n2CC2CCCO2)cc(OC)c1OC (stereo not given)
Second: COc1cc(Cc2nc3c(N)nc(F)nc3n2CC2CCC2)cc(OC)c1OC
The IC50 of the first is 1.8-fold lower: 22.9 µM for the first, 40.7 µM for the second. The first is the more potent here.

Compared with `COc1cc(Cc2nc3c(N)ncnc3n2CC2(C)CC2)cc(OC)c1OC`, `CCCn1c(Cc2cc(OC)c(OC)c(OC)c2)nc2c(N)ncnc21` is 2.4-fold lower in IC50: 112 µM for the first, 46.8 µM for the second.

Compared with `CCCCn1c(Cc2cc(OC)c(OC)c(OC)c2)nc2c(N)nc(F)nc21`, `CCCCCn1c(Cc2cc(OC)c(OC)c(OC)c2)nc2c(N)nc(F)nc21` is 1.5-fold higher in IC50: 24 µM for the first, 36.3 µM for the second.

`COc1cc(Cc2nc3c(N)ncnc3n2CC(OC)OC)cc(OC)c1OC` and `COCCn1c(Cc2cc(OC)c(OC)c(OC)c2)nc2c(N)ncnc21` are within 1.5-fold of each other in IC50: 72.4 µM for the first, 64.6 µM for the second.

`C/C=C/Cn1c(Cc2cc(OC)c(OC)c(OC)c2)nc2c(N)ncnc21` and `C=CCCn1c(Cc2cc(OC)c(OC)c(OC)c2)nc2c(N)ncnc21` are within 1.5-fold of each other in IC50: 51.3 µM for the first, 40.7 µM for the second.

Compared with `CCCCn1c(Cc2cc(OC)c(OC)c(OC)c2Cl)nc2c(N)ncnc21`, `CCCCCn1c(Cc2cc(OC)c(OC)c(OC)c2)nc2c(N)ncnc21` is 3.2-fold higher in IC50: 19.1 µM for the first, 61.7 µM for the second.

Compared with `C#CCCCn1c(Cc2cc(OC)c(OC)c(OC)c2)nc2c(N)nc(F)nc21`, `C#CCCn1c(Cc2cc(OC)c(OC)c(OC)c2)nc2c(N)nc(F)nc21` is 2.3-fold higher in IC50: 11 µM for the first, 25.1 µM for the second.

Compared with `COc1cc(Cc2nc3c(N)ncnc3n2CC2CCCCC2)cc(OC)c1OC`, `COc1cc(Cc2nc3c(N)ncnc3n2CC2CCCO2)cc(OC)c1OC` (stereo not given) is 2.3-fold higher in IC50: 39.8 µM for the first, 91.2 µM for the second.

Going from `COc1cc(Cc2nc3c(N)ncnc3n2CCCC(C)C)cc(OC)c1OC` to `COc1cc(Cc2nc3c(N)ncnc3n2CCOC(C)C)cc(OC)c1OC`, the IC50 falls from 69.2 µM to 38.9 µM (1.8-fold). The second is the more potent here.

Going from `COc1cc(Cc2nc3c(N)ncnc3n2C)cc(OC)c1OC` to `CC#CCCn1c(Cc2cc(OC)c(OC)c(OC)c2)nc2c(N)nc(F)nc21`, the IC50 falls from 70.8 µM to 37.2 µM (1.9-fold).
